Drawing on US12201641B2, “Compositions comprising Withania Somnifera extract for mammalian consumption” (SpecNova LLC, priority 2021, dated 2025), this text covers Papp A→B for five compounds.

The data set is described as follows: Unidirectional (A→B) permeability across Caco-2 cell monolayer. Particulars: human, Caco-2, pH 7.4, Caco-2 Permeability (Papp) (A→B); for Papp A→B at 120 min, 1 μg/mL: compound alone, 1 μg/mL in HBSS buffer, pH 7.4, 120 min. Here is the method:
The Caco-2 permeability of two Withania somnifera extracts prepared by the claimed method of the present application (EXT001 and EXT002) and one Withania somnifera extract prepared using an alternative method (ALT001) were measured for comparison. Caco-2 cells (ATCC HTB-37) were grown on 24 well Transwell plates for 21 days. as per internal protocol number MET-TDDC-011. On the day of experiment the transepithelial electrical resistance (TEER) was measured across the monolayer and wells with TEER greater than 200 ohm*cm^2 were used for the permeability assessment. Incubation buffer consisted of Hanks balanced salt solution (HBSS) without CaCl2 and MgCl2, adjusted to pH 7.4, for both the donor, and the receiver. […] Lucifer yellow was used as zero permeability reference to check membrane integrity.
The compound solutions were prepared in HBSS buffer (pH 7.4) at a concentration of 1 μg/mL for permeability assessment. 5 mg each of Withania somnifera extracts EXT002 and EXT001 were added to 5 mL of HBSS buffer and vortexed for 2 hours followed by filtration through 0.22 μm syringe filter. These solutions were used for permeability determination. […] The methanolic extract was filtered through 0.22 μm filter. This extract was concentrated to 1 mL by passing nitrogen gas at 40° C. for 1 hr. Then 20 μL of this extract was spiked in 2 mL of HBSS buffer and filtered through 0.22 μm filter. This solution was used for the permeability study.
The permeability assay was performed in triplicate for each compound or product. Prior to the permeability assay, the transwells were washed with in pre-warmed HBSS buffer. The medium in the insert was aspirated and then the transwells were transferred to a 24-well plate with blank HBSS buffer (600 μL) in each well, and compound solution (102.5 μL, of which 2.5 μL was sampled immediately as the zero-minute donor) was added to each insert. Receiver samples (25 μL) were collected at 60, and 120 minutes, and replaced with an equal volume of fresh pre-warmed receiver buffer (at 60 minutes). The donor side was sampled (2.5 μL) at 0 and 120 minutes. The assay was conducted at 37° C. in a humidified CO2 incubator.
For analysis, any necessary dilutions of samples were performed with HBSS, pH 7.4. 25 μL of sample was mixed with 100 μL of acetonitrile with 25 ng/mL of mitragynine internal standard (IS), and then mixed and filtered through 0.4 μm filter plate to by centrifugation for 5 minutes at 2,000 rpm to a polypropylene 96-well plate for analysis. The samples were assayed by LC-MS/MS method.
The apparent permeability coefficient (Papp) and recovery were calculated as follows: […]
Where, VA is the volume of the acceptor compartment; A is the diffusional area of the membrane (0.33 cm^2); T is the length of study; [Drug]ini,donor is the donor compound amount at 0 minute; [Drug]acceptor is the acceptor compound amount at 120 minute. The compounds with permeability above 5×10^−6 cm/s will be considered high permeability compounds while those with permeability below 5×10^−6 cm/s will be considered low permeability compounds.
For orientation: Caco-2 cells form a polarised layer with tight junctions and transporters.

Turning to `CC1=C(C)C(=O)O[C@@H]([C@@H](C)[C@H]2CC[C@H]3[C@@H]4CC=C5C[C@@H](O[C@@H]6O[C@H](CO[C@@H]7O[C@H](CO)[C@@H](O)[C@H](O)[C@H]7O)[C@@H](O)[C@H](O)[C@H]6O)C[C@H](O)[C@]5(C)[C@H]4CC[C@]23C)C1` [Withanolside V, withanoside V], the Papp A→B – broadly, the apparent permeability from the apical to the basolateral side of a cell layer – at 120 min, 1 μg/mL amounted to 4.03 ± 0.87 ×10⁻⁶ cm/s.
As to `CC1=C(C)C(=O)O[C@@H]([C@](C)(O)[C@H]2CC[C@H]3[C@@H]4[C@@H]5O[C@@H]5[C@@]5(O)CC=CC(=O)[C@]5(C)[C@H]4CC[C@]23C)C1` [Withanolide A, withanolide A], the Papp A→B at 120 min, 1 μg/mL stood at 3.23 ± 0.5 ×10⁻⁶ cm/s.
`CC1=C(CO)C(=O)O[C@@H]([C@@H](C)[C@H]2CC[C@H]3[C@@H]4C[C@H]5O[C@]56[C@@H](O)C=CC(=O)[C@]6(C)[C@H]4CC[C@]23C)C1` [Withaferin A, withaferin A] came in with a Papp A→B at 120 min, 1 μg/mL of 4.55 ± 0.81 ×10⁻⁶ cm/s.
Compound `NS(=O)(=O)c1cc2c(cc1Cl)N=CNS2(=O)=O` [Chlorothiazide, reference compound] registered a Papp A→B at 120 min, 5 μg/mL of 4.2 ± 1.79 ×10⁻⁶ cm/s.
`CC1=C(CO)C(=O)O[C@@H]([C@@H](C)[C@H]2CC[C@H]3[C@@H]4CC=C5C[C@@H](O[C@@H]6O[C@H](CO[C@@H]7O[C@H](CO)[C@@H](O)[C@H](O)[C@H]7O)[C@@H](O)[C@H](O)[C@H]6O)C[C@H](O)[C@]5(C)[C@H]4CC[C@]23C)C1` [Withanoside IV, withanoside IV] showed a Papp A→B at 120 min, 1 μg/mL of 5.42 ± 0.69 ×10⁻⁶ cm/s.
